The values that follow come from ChEMBL document CHEMBL4354839, “Heterobifunctional Molecules Induce Dephosphorylation of Kinases-A Proof of Concept Study” (J Med Chem, 2020).

Structures are written as SMILES. Calls of active or inactive are those of the source. The rule behind the calls is not given here. Residues, ends and D or L forms follow the SMILES beside them. *: point of attachment. X1 = O=C(C*)NCCOCCOCC(=O)Nc1ccc2[nH]c(=O)n(C3CCN(Cc4ccc(-c5nc6cc[nH]c(=O)c6cc5-c5ccccc5)cc4)CC3)c2c1

Experiment [1] addresses T1, AKT1/PPP1CA (Homo sapiens) (UniProt P62136+P31749). The experiment in a line: Induction of PPI-mediated AKT dephosphorylation in human LnCaP cells assessed as increase in AKT T308 dephosphorylation at 10 uM incubated for 8 hrs by Western blot analysis. In kind it is cell-based. On the technique in general: In western blotting, separated proteins are transferred to a membrane and probed.

Experiment [2] has as its target T1, AKT1/PPP1CA (Homo sapiens). Kind of experiment: Induction of PPI-mediated AKT dephosphorylation in human LnCaP cells assessed as increase in AKT S473 dephosphorylation at 10 uM incubated for 8 hrs by Western blot analysis. In kind it is cell-based.
For experiment [3], the target named is T1, AKT1/PPP1CA (Homo sapiens). The experiment in a line: Induction of PPI-mediated AKT dephosphorylation in human MCF7/neo HER2 cells assessed as increase in AKT T308dephosphorylation at 10 uM incubated for 8 hrs by Western blot analysis. In kind it is cell-based.
Experiment [4] concerns the target T1, AKT1/PPP1CA (Homo sapiens). The experiment in a line: Induction of PPI-mediated AKT dephosphorylation in human MCF7/neo HER2 cells assessed as increase in AKT […] dephosphorylation at 10 uM incubated for 8 hrs by Western blot analysis. Type of experiment: cell-based.
Experiment [5] addresses T1, AKT1/PPP1CA (Homo sapiens). Kind of experiment: Induction of PPI-mediated AKT dephosphorylation in human PC3 cells assessed as increase in AKT T308 dephosphorylation at 10 uM incubated for 8 hrs by Western blot analysis. In kind it is cell-based.
The target in experiment [6] is T1, AKT1/PPP1CA (Homo sapiens). The experiment in a line: Induction of PPI-mediated AKT dephosphorylation in human PC3 cells assessed as increase in AKT S473 dephosphorylation at 10 uM incubated for 8 hrs by Western blot analysis. In kind it is cell-based.
Experiment [7] concerns the target T1, AKT1/PPP1CA (Homo sapiens). The experiment in a line: Induction of PPI-mediated AKT dephosphorylation in human LnCaP cells assessed as increase in AKT T308 dephosphorylation at 10 uM incubated for 6 and 8 hrs by Western blot analysis. In kind it is cell-based.
Experiment [8] concerns the target T1, AKT1/PPP1CA (Homo sapiens). The experiment in a line: Induction of PPI-mediated AKT dephosphorylation in human LnCaP cells assessed as reduction in S6 phosphorylation at 10 uM incubated for 8 hrs by Western blot analysis. Type of experiment: cell-based.
For experiment [9], the target named is T1, AKT1/PPP1CA (Homo sapiens). Kind of experiment: Induction of PPI-mediated AKT dephosphorylation in human LnCaP cells assessed as increase in AKT T308 dephosphorylation at 10 uM incubated for 8 hrs in presence of PPI siRNA by Western blot analysis. Type of experiment: cell-based.
Experiment [10] deals with EGFR/PPP1CA (Homo sapiens) (UniProt P00533+P62136). Kind of experiment: Induction of PPI-mediated EGFR dephosphorylation in human HCC827 cells transfected with human Halo/FLAG-tagged PP1CA assessed as increase in EGFR Y1068 dephosphorylation at 10 uM incubated for 8 hrs by Western blot analysis. Type of experiment: cell-based.
EGFR/PPP1CA (Homo sapiens), sequence (P00533 whole entry, looked up): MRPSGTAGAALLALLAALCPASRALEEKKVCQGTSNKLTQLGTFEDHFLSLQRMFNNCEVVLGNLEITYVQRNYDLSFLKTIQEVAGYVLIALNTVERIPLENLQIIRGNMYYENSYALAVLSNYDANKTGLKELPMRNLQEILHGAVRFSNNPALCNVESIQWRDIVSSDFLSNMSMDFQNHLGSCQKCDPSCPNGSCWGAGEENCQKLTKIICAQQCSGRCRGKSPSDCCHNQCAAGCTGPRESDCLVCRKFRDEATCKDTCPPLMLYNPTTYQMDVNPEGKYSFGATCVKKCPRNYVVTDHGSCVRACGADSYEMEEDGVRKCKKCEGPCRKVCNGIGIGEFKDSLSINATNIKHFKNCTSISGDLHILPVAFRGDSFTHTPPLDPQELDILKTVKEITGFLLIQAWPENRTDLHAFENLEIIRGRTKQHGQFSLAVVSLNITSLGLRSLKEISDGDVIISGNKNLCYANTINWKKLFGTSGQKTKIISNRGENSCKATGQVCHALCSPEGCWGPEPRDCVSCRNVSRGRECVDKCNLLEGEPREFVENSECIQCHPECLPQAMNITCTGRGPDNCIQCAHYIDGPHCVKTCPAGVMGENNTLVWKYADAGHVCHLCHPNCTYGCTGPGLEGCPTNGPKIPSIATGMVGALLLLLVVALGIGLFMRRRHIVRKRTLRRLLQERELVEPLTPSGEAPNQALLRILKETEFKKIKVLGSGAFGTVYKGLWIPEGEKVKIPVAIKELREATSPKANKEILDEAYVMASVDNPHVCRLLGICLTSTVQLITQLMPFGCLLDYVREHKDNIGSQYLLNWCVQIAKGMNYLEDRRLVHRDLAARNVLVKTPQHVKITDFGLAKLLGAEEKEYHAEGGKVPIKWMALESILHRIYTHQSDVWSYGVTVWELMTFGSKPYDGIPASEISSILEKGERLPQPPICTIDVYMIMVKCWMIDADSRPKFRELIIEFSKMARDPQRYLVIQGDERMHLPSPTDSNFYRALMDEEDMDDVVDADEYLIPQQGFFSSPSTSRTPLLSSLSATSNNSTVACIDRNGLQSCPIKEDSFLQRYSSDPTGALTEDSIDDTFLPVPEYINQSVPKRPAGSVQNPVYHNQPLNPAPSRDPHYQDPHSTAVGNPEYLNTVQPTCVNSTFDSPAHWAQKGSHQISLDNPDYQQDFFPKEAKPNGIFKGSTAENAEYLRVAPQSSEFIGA
EGFR/PPP1CA (Homo sapiens), sequence (P62136 whole entry, looked up): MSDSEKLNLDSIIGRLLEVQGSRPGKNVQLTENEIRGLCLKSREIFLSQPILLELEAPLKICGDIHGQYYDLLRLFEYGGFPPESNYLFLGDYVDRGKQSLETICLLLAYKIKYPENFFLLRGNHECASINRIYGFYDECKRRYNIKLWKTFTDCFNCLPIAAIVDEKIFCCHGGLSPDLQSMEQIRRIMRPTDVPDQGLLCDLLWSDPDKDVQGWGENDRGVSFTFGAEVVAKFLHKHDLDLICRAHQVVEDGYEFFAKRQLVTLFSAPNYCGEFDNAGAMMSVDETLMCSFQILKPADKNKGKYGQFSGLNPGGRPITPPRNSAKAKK
For the next experiment, the system named is HCC827. The experiment in a line: Induction of dephosphorylation of EGFR Y1068 in human HCC827 cells at 10 uM incubated for 8 hrs by Western blot analysis. Type of experiment: functional, cell-based.
For experiment [11], the target named is T1, AKT1/PPP1CA (Homo sapiens). The experiment in a line: Induction of PPI-mediated AKT dephosphorylation in human LnCaP cells transfected with human Halo/FLAG-tagged PP1CA at 10 uM incubated for 8 hrs by Western blot analysis. Type of experiment: cell-based.
Experiment [12] addresses T1, AKT1/PPP1CA (Homo sapiens). The experiment in a line: Induction of PPI-mediated AKT dephosphorylation in human MCF7/neo HER2 cells transfected with human Halo/FLAG-tagged PP1CA at 10 uM incubated for 8 hrs by Western blot analysis. Type of experiment: cell-based.
For experiment [13], the target named is T1, AKT1/PPP1CA (Homo sapiens). Kind of experiment: Induction of PPI-mediated AKT dephosphorylation in human PC3 cells transfected with human Halo/FLAG-tagged PP1CA at 10 uM incubated for 8 hrs by Western blot analysis. Type of experiment: cell-based.
Experiment [14] deals with T1, AKT1/PPP1CA (Homo sapiens). Kind of experiment: Induction of PPI (unknown origin)-mediated pAKT (T308) (unknown origin) dephosphorylation incubated for 1 hr by Western blot analysis. In kind it is protein assay.
Experiment [15] concerns the target T1, AKT1/PPP1CA (Homo sapiens). Kind of experiment: Induction of PPI (unknown origin)-mediated pAKT (T308) (unknown origin) dephosphorylation at 0.25 to 10 uM incubated for 1 hr by Western blot analysis. Type of experiment: protein assay.
Experiment [16] addresses T1, AKT1/PPP1CA (Homo sapiens). The experiment in a line: Induction of PPI-mediated AKT dephosphorylation in human LnCaP cells at 0.1 to 10 uM incubated for 2 hrs by Western blot analysis. Type of experiment: cell-based.
Experiment [17] addresses T1, AKT1/PPP1CA (Homo sapiens). Kind of experiment: Induction of PPI-mediated AKT dephosphorylation in human LnCaP cells assessed as increase in AKT dephosphorylation at 50 uM incubated for 8 hrs by Western blot analysis. In kind it is cell-based.

T1 sequence (P31749 whole entry, looked up): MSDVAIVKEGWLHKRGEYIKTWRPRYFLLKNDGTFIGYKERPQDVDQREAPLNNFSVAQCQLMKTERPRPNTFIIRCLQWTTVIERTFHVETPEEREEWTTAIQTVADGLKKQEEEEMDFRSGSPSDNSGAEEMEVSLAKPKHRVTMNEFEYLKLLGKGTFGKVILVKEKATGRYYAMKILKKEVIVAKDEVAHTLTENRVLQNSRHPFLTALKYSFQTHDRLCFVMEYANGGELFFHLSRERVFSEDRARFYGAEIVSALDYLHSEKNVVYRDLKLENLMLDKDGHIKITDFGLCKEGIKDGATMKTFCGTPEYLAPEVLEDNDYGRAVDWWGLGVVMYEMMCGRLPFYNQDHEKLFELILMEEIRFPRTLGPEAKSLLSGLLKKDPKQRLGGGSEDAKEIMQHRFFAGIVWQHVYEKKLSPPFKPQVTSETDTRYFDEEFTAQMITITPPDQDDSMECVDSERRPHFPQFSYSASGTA
T1 sequence (P62136 whole entry, looked up): as the sequence (P62136 whole entry, looked up) above

For the molecule `CC(=O)N[C@@H](CSCC(=O)NCCOCCOCC(=O)Nc1ccc2[nH]c(=O)n(C3CCN(Cc4ccc(-c5nc6cc[nH]c(=O)c6cc5-c5ccccc5)cc4)CC3)c2c1)C(=O)N[C@@H](CCCNC(=N)N)C(=O)N[C@H](C(=O)N[C@@H](CO)C(=O)N[C@@H](C)C(=O)O)C(C)C`, the outcome in [1], in experiment [2], in [3], in [4], in [5] and in [6] was inactive. Also, the outcome in [7] was inactive. For the same molecule, the outcome in [8] was Active.
As to `CC(=O)N[C@@H](CSCC(=O)NCCOCCOCC(=O)Nc1ccc2[nH]c(=O)n(C3CCN(Cc4ccc(-c5nc6cc[nH]c(=O)c6cc5-c5ccccc5)cc4)CC3)c2c1)C(=O)N[C@@H](CCCNC(=N)N)C(=O)N[C@H](C(=O)N[C@@H](CO)C(=O)N(C)[C@@H](Cc1ccccc1)C(=O)O)C(C)C`, the result in experiment [1], in experiment [2], in experiment [3], in [4], in [5] and in experiment [6] was Active. For the same molecule, the outcome in experiment [7] and in experiment [8] was Active. For the same molecule, the outcome in [9] was inactive.
As to `C=CC(=O)Nc1cc(Nc2nccc(-c3cn(C)c4ccccc34)n2)c(OC)cc1N(C)CCN1CCN(C(=O)COCCOCCOCCCCCCCl)CC1`, the outcome (in experiment [10]; with HCC827) was Active.
Consider `O=C(CCC(=O)NCCOCCOCC(=O)Nc1ccc2[nH]c(=O)n(C3CCN(Cc4ccc(-c5nc6cc[nH]c(=O)c6cc5-c5ccccc5)cc4)CC3)c2c1)NCCOCCOCCCCCCCl`, for which the outcome in experiment [11], in experiment [12] and in experiment [13] was Active.
With `CC(=O)Nc1ccc2[nH]c(=O)n(C3CCN(Cc4ccc(-c5nc6cc[nH]c(=O)c6cc5-c5ccccc5)cc4)CC3)c2c1`, in [14], the Activity entry is “Dose-dependent effect”.
With `CC[C@H](C)[C@H](NC(=O)[C@@H](NC(=O)[C@H](CCC(=O)O)NC(=O)[C@H](C)NC(=O)[C@H](C)NC(=O)[C@H](CCC(=O)O)NC(=O)[C@H](C)NC(=O)[C@H](Cc1ccccc1)NC(=O)[C@@H](NC(=O)[C@@H](NC(=O)[C@H](CCCNC(=N)N)NC(=O)[C@H](C)NC(=O)[C@H](CC(N)=O)NC(=O)[C@H](CCCCN)NC(=O)[C@H](CCCNC(=N)N)NC(=O)[C@H](CCCCN)NC(=O)[C@H](CCCNC(=N)N)NC(=O)[C@H](CCCCN)NC(=O)[C@@H]1CCCN1C(=O)[C@H](CCCNC(=N)N)NC(=O)[C@H](CSCC(=O)NCCOCCOCC(=O)Nc1ccc2[nH]c(=O)n(C3CCN(Cc4ccc(-c5nc6cc[nH]c(=O)c6cc5-c5ccccc5)cc4)CC3)c2c1)NC(C)=O)C(C)C)[C@@H](C)O)[C@@H](C)CC)C(=O)O` (Ac-C(X1)RPKRKRKNARVTFAEAAEII-OH), in experiment [15], the outcome was Active. For the same molecule, the outcome in [16] was inactive.
On to `CC(=O)N[C@@H](CSCC(=O)NCCOCCOCCOCC(=O)N(C)CCN(C[C@@H](C(=O)N1CCN(c2ncnc3c2[C@H](C)C[C@H]3O)CC1)c1ccc(Cl)cc1)C(C)C)C(=O)N[C@@H](CCCNC(=N)N)C(=O)N[C@H](C(=O)N[C@@H](CO)C(=O)N[C@@H](C)C(=O)O)C(C)C`, for which the outcome in experiment [1] and in [2] was inactive. The result in [17] was Active.
